The source of these data is patent US9997714B2, “Hole transport material” (MERCK PATENT GMBH, priority 2013, dated 2018).

Read-outs that look alike come from different tables or passages of the source.

As usually defined, the solubility is the concentration that dissolves in the medium under given conditions.

Series [1] can be described thus: Hole mobility by impedance spectroscopy. It is filed as physicochemical. The settings on record: for Hole mobility: ITO/PEDOT-PSS/HTM(400 nm)/Au cell, dc field intensity 10^5V/cm, four cells. As for the experimental part: The hole mobility of the inventive compound 2,2′,7,7′-tetrakis-(N,N′-di-4-methoxy-3-methylphenylamine)-9,9′-spirobifluorene is measured and the value is compared with those of the reference materials according to example 2 and example 3.
The structure of the measurement cell is ITO(200 nm)/PEDOT-PSS(150 nm)/HTM(400 nm)/Au(60 nm).
The measurement is carried out using four cells for each HTM by means of impedance spectroscopy. (Ref. 1. H. Martens et al., Phys. Rev. B, 60, R8489 (1999), Ref. 2. S. Ishihara, et al., Proc. of IDW'09, p 1085 (2009)). In the impedance measurement, a direct current (dc) voltage is applied to the test cell in order to inject holes from an anode. The hole mobility is determined under the dc field intensity of 10^5V/cm.

Series [2] can be described thus: Qualitative solubility of the HTM in chlorobenzene (spin-coat solution). The class given is physicochemical. The settings on record: for solubility compared with reference materials: in words; for solubility: organic solvent or mixture. As for the experimental part:
A solution for a spin-coat is prepared in a N2 glove box as follows: at first, 20 mg of a hole transport material is dissolved in 95 μL of chlorobenzene. The hole transport material needs to be dissolved completely. A mother solution of lithium bis(trifluorosulfonyl)imide (LiTFSI) and tert-butylpyridine (TBP) is prepared separately at room temperature and is added to the hole transporter solution to set the molar ratio to [hole transporter]:[LiTFSI]:[TBP]=10:1:10 at room temperature. Thus the final volume of the solution is 100 μL.
The solubility of the HTMs according to examples 1, 2 and 3 are evaluated qualitatively:
1 means: 20 mg of HTM is completely dissolved without heating
2 means: HTM is dissolved after heating to 80° C.
3 means: HTM is dissolved after adding salt and base solution and heating to 80° C.
4 means: HTM is dissolved after adding another 50 μL of chlorobenzene and heat to 80° C. (final folume 150 μl).

For series [3] the following is noted: order of magnitude, background; cited from earlier work.
[4] abbreviates: 20 mg of HTM in 95 μL chlorobenzene completely dissolved without heating, read-out: solubility grade 1.

`COc1ccc(N(c2ccc(OC)c(C)c2)c2ccc3c(c2)C2(c4cc(N(c5ccc(OC)c(C)c5)c5ccc(OC)c(C)c5)ccc4-3)c3cc(N(c4ccc(OC)c(C)c4)c4ccc(OC)c(C)c4)ccc3-c3ccc(N(c4ccc(OC)c(C)c4)c4ccc(OC)c(C)c4)cc32)cc1C`: in series [1] (in words), the “hole mobility compared with reference example 3” value is reported as “more than one order of magnitude larger” and the “hole mobility compared with spiro-OMeTAD” value was “larger than the hole mobility of spiro-OMeTAD”.
`COc1ccc(N(c2ccc(OC)c(C)c2)c2ccc3c(c2)C2(c4cc(N(c5ccc(OC)c(C)c5)c5ccc(OC)c(C)c5)ccc4-3)c3cc(N(c4ccc(OC)c(C)c4)c4ccc(OC)c(C)c4)ccc3-c3ccc(N(c4ccc(OC)c(C)c4)c4ccc(OC)c(C)c4)cc32)cc1C` [Example 1, 2,2′,7,7′-tetrakis-(N,N′-di-4-methoxy-3-methylphenylamine)-9,9′-spirobifluorene] displayed a Hole mobility in series [1] of 1.29E−04 cm^2/Vs. For the same molecule, the “solubility grade 1” value in series [2] (20 mg of HTM in 95 μL chlorobenzene completely dissolved without heating) was “✓”. In addition, the “solubility compared with reference materials” value in series [2] (listed as compound of formula (I)) was “better solubility than spiro-OMeTAD”; in series [2] (listed as hole transport material according to the invention), “better solubility than the reference materials”.
Regarding `COc1ccc(N(c2ccc(OC)cc2)c2ccc3c(c2)C2(c4cc(N(c5ccc(OC)cc5)c5ccc(OC)cc5)ccc4-3)c3cc(N(c4ccc(OC)cc4)c4ccc(OC)cc4)ccc3-c3ccc(N(c4ccc(OC)cc4)c4ccc(OC)cc4)cc32)cc1` [Example 2, 2,2′,7,7′-tetrakis-(N,N′-di-4-methoxyphenylamine)-9,9′-spirobifluorene], the Hole mobility in series [1] worked out at 1.08E−04 cm^2/Vs. In addition, the “solubility grade 2” value in series [2] (HTM dissolved after heating to 80° C.) is given as “✓”. Moreover, the solubility in series [2] (setting [4]) is below 210 mg/mL. For the same molecule, in series [3], the charge carrier mobility was ~10^−4 cm^2/Vs.
In the case of `COc1c(C)cc(N(c2cc(C)c(OC)c(C)c2)c2ccc3c(c2)C2(c4cc(N(c5cc(C)c(OC)c(C)c5)c5cc(C)c(OC)c(C)c5)ccc4-3)c3cc(N(c4cc(C)c(OC)c(C)c4)c4cc(C)c(OC)c(C)c4)ccc3-c3ccc(N(c4cc(C)c(OC)c(C)c4)c4cc(C)c(OC)c(C)c4)cc32)cc1C` [Example 3], the Hole mobility in series [1] worked out at 9.34E−06 cm^2/Vs. Further, in series [2] (HTM dissolved after adding another 50 μL of chlorobenzene and heat to 80° C., final volume 150 μl), the “solubility grade 4” value is “✓”. For the same molecule, the solubility is below 210 mg/mL in series [2] (chlorobenzene with LiTFSI and tert-butylpyridine solution, HTM dissolved after adding salt and base solution and heating to 80° C., read-out: solubility grade 3); below 210 mg/mL in series [2] (chlorobenzene, HTM dissolved after heating to 80° C., read-out: solubility grade 2); below 210 mg/mL in series [2] (setting [4]).
